Experimental data reported in US20250171404A1, “PCNA INHIBITORS AND USES THEREOF” (CITY OF HOPE, priority 2022, published 2025).

What was measured:
[1] = molecular target: T1, PCNA (Homo sapiens, UniProt P12004); assay: Thermal denaturation (thermal shift) assay; assay type: binding; conditions: 9 μM PCNA; 10 or 30 μM compound; dose dependent
T1 construct: made in house; host or cells: E. coli Rosetta 2 (DE3)
Protocol: FIGS. 1A-1E. AOH1160 analog interactions with PCNA. FIG. 1A: Thermal shift assay: Normalized inverse derivative thermal denaturation plots of 9 μM apo-PCNA with DMSO control is depicted with a black dashed line and PCNA in the presence of 10 μM AOH1160LE is shown in light grey and 30 μM AOH1160LE in dark grey. ΔTm values are provided. FIG. 1B: As described in FIG. 1A, in the presence of 10 μM AOH1996 depicted in light grey and 30 μM AOH1996 depicted in dark grey. FIG. 1C: Four monomers (chains A-D) of PCNA are present in the asymmetric unit of the crystal. Chains A, B, and C form the homotrimer biological unit, while chain Dis orientated perpendicular to the plane of the ring, below the interface of chains B and C and it belongs to an adjacent ring. Inset: Three molecules of AOH1160LE bind in and adjacent to the PIP box cavity of each of the PCNA ring subunits. The omit map, gray mesh, is contoured to 1.56. Two PCNA monomer subunits from adjacent rings stack against each other, placing the PIP box and IDCLs of each subunit in opposing directions. FIG. 1D: The three AOH1160LE molecules are shown as stick figure representations. Two of the compounds, left and central, bind into the PIP box cavity at known PCNA-partner/compound interaction sites. […] The electrostatic surface maps are depicted with Poisson-Boltzmann electrostatic surface potentials shown in dark grey and light grey, corresponding to −10 to +10 kT/e respectively.
Targeting the PIP box and APIM binding domain of PCNA. AOH1160, a small molecule PCNA ligand, targets the cancer-distinct L126-Y133 region of PCNA (Malkas et al., 2006) and is selectively toxic to cancer cells (Gu et al., 2018). […]
Thermal denaturation assay for PCNA-AOH1996 interaction. […] Fluorescence intensity was measured within the excitation/emission ranges 470-505/540-700 nm.

[2] = test system: MDA-MB-468 xenograft tumors; assay: Xenograft tumor model, breast cancer; assay type: in vivo, mice; conditions: 40 mg/kg twice daily, oral, vs vehicle
Protocol: FIGS. 4A-4H. Pharmacokinetics and anti-tumor growth activity of AOH1996 in vivo. FIG. 4A: After oral administration, the plasma concentrations of AOH1996 from three male and three female ES1^e/SCID mice at the indicated time points were averaged and graphed ±S.D. The inset contains PK parameters determined by a standard noncompartmental method. FIG. 4B: A similar PK study of AOH1996 was performed in dogs. FIGS. 4C-4E: Mice bearing the xenograft tumors of neuroblastoma (FIG. 4C: SK-N-BE(2)c), breast cancer (FIG. 4D: MDA-MB-468), and small-cell lung cancer (FIG. 4E: H82) were given vehicle only (black) or 40 mg/kg of AOH1996 (grey) twice daily immediately after the first measurement. Tumor sizes were measured by a dial caliper each week. Tumor volumes (0.4×L×W^2) were averaged and graphed ±S.E. (*, P<0.01). FIG. 4F: Animal body weight was monitored throughout the studies as an indicator of toxicity. […] FIG. 4G: The levels of phosphor-Chk1 (pChk1) and γH2A.X in SK-N-BE(2)c derived tumor samples were analyzed by IHC. […] The p values determined by the Log-rank (Mantel-Cox) test between combination treatment and each of the control groups are p=0.0003 (Combination vs. NoRx), p=0.005 (Combination vs. AOH1996 alone), and p=0.024 (Combination vs. CPT-11 alone).
In vivo tumor model. […] Tumor size and animal weight were measured weekly. […]

[3] = test system: SK-N-AS cells homozygous of the Y418A mutant RPB1 alleles; assay: Growth of RPB1 Y418A (APIM) mutant cell lines; assay type: cell-based, human; conditions: 72 hrs; vs parent SK-N-AS

T1 sequence (P12004 whole entry): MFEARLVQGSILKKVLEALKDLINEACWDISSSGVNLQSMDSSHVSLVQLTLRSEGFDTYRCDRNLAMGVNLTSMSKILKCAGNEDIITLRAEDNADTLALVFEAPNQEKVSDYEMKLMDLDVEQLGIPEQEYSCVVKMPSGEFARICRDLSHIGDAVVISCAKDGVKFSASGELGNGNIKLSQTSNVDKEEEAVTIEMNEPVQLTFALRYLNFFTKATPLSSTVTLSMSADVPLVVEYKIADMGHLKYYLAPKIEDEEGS

SMILES: COc1cccc(Oc2ccccc2NC(=O)CNC(=O)c2cccc3ccccc23)c1 [AOH1996, N-(2-((2-(3-methoxyphenoxy)phenyl)amino)-2-oxoethyl)-1-naphthamide]
- shift of protein melting curves (ΔTm) [1]: ≤ 1.5 °C
- tumor burden [2]: significantly reduced tumor burden
- sensitivity of RPB1 Y418A mutant cells to growth inhibition [3]: significantly less sensitive to growth inhibition by AOH1996 than the parent cells
